Key:
[1] = molecular target: T1, Myosin-IIIb (Homo sapiens) (UniProt Q8WXR4); assay: Inhibition of human recombinant MYO3B at 40 nM in presence of ATP by radiometric assay relative to control
T1 sequence (whole entry): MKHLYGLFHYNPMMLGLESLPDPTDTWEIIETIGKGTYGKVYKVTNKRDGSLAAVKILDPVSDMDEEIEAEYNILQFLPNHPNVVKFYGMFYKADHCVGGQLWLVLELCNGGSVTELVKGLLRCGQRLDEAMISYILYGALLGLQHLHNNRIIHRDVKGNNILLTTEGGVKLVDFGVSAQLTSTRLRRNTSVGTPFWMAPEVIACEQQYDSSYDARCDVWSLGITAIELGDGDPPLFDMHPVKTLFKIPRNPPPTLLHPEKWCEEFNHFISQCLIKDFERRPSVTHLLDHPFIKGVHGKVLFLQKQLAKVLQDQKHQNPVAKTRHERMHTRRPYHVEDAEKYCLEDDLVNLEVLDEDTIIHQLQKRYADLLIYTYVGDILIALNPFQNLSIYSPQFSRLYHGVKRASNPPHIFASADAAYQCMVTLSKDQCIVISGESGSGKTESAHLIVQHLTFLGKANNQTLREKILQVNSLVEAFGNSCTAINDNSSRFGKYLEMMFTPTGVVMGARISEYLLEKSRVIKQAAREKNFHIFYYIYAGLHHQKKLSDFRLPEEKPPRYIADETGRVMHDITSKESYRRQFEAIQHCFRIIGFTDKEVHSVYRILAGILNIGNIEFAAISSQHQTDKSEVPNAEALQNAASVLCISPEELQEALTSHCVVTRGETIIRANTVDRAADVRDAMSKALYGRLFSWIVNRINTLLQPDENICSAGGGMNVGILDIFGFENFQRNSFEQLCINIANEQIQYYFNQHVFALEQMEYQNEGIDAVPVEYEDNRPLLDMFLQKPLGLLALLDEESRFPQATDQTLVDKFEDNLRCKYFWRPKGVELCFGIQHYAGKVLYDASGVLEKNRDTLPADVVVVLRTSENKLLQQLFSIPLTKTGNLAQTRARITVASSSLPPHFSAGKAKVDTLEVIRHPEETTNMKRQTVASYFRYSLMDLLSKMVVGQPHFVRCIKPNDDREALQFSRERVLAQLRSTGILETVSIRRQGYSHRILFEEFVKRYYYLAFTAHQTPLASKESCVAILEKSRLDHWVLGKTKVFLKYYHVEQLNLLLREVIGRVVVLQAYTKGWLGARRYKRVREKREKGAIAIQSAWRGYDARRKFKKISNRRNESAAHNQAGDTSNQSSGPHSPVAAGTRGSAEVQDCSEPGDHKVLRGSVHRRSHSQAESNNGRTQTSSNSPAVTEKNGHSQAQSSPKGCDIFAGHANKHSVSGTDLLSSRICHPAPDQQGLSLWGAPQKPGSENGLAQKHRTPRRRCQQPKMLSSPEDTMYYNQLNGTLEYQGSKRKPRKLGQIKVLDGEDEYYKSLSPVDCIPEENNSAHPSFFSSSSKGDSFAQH

[2] = molecular target: T2, Tribbles homolog 2 (Homo sapiens) (UniProt Q92519); assay: Inhibition of human recombinant Trb2 at 40 nM related to control ULK1
T2 sequence (whole entry): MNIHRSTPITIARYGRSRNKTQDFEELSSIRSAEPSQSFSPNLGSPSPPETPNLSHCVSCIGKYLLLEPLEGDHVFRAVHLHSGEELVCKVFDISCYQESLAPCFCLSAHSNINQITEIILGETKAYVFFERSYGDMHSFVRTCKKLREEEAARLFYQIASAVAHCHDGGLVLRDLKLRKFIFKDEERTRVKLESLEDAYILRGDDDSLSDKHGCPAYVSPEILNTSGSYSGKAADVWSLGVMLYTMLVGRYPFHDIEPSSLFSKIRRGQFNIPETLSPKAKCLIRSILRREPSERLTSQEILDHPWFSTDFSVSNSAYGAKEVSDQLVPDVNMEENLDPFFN

[3] = molecular target: T3, NUAK family SNF1-like kinase 2 (Homo sapiens) (UniProt Q9H093); assay: Inhibition of human recombinant NuaK2 at 15 nM in presence of ATP by radiometric assay relative to control
T3 sequence (whole entry): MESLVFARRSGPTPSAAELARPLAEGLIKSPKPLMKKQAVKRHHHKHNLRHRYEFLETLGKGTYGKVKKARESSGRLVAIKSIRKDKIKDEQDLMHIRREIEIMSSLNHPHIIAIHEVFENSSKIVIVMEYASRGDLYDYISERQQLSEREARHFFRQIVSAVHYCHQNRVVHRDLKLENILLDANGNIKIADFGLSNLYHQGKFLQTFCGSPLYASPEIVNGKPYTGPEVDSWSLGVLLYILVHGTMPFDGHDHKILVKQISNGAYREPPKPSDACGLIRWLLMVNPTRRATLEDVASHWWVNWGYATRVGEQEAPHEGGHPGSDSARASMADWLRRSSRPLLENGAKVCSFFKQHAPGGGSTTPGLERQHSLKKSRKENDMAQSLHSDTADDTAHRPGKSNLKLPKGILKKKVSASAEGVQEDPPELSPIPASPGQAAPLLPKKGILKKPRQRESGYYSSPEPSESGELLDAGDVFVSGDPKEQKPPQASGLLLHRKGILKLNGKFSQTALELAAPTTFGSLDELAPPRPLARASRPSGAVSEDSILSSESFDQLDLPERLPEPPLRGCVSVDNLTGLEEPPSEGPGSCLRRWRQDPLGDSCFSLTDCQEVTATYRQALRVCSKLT

inhibition [1] | fold change (FC) [2] | inhibition [3] | SMILES
0% | 0.47 |  | O=C(N[C@@H](C1CC1)C(F)(F)F)c1cc(-c2cnn3cc(-c4ccc(F)cc4)cnc23)cs1
 |  | 18% | CC(C)[C@H](NC(=O)c1cc(-c2cnn3cc(-c4ccc(OCCN5CCCCC5)cc4)cnc23)cs1)C(F)(F)F

From ChEMBL document CHEMBL5653631, “A Potent and Selective ULK1 Inhibitor Suppresses Autophagy and Sensitizes Cancer Cells to Nutrient Stress” (iScience, 2018)
